Data as given in ChEMBL document CHEMBL6092220 (J Med Chem, 2024).
The source made the active and inactive calls. No cut-off for these calls is given here.

How the values were obtained:
[1] = target: T1, Protein cereblon/Signal transducer and activator of transcription 3 (Mus musculus) (UniProt P42227+Q8C7D2); assay: In-vivo PROTAC activity at STAT3/CRBN in female CB17 SCID mouse assessed as reduction STAT3 level spleen at 10 mg/kg, iv measured at 24 hrs by Western blot analysis; assay type: functional, organism-based; design: scale not given: the % may be the effect or the level left
[2] = target: T1, Protein cereblon/Signal transducer and activator of transcription 3 (Mus musculus); assay: In-vivo PROTAC activity at STAT3/CRBN in female CB17 SCID mouse assessed as reduction STAT3 level liver at 10 mg/kg, iv measured at 72 hrs by Western blot analysis; assay type: functional, organism-based; design: scale not given: the % may be the effect or the level left
[3] = Antiproliferative activity against human MOLM16 cells assessed as cell growth inhibition incubated for 4 days by celltiter-glo assay; assay type: functional, cell-based, MOLM-16; settings: MOLM16, 96 h
SU-DHL-1 = assay: Antiproliferative activity against human SU-DHL-1 cells assessed as cell growth inhibition incubated for 4 days by celltiter-glo assay; assay type: functional, cell-based; settings: SU-DHL-1, 96 h
[4] = Antiproliferative activity against human SUPM2 cells assessed as cell growth inhibition incubated for 4 days by celltiter-glo assay; assay type: functional, cell-based; settings: SUP-M2, 96 h
[5] = AUC (0 to t) in ICR mouse at 5 mg/kg, iv; assay type: ADME, organism-based; settings: in vivo
[6] = Clearance in ICR mouse at 5 mg/kg, iv; assay type: ADME, organism-based; settings: in vivo
[7] = Clearance in Sprague-Dawley rat assessed as hepatic blood flow at 5 mg/kg, iv; assay type: ADME, organism-based; settings: in vivo
[8] = AUC (0 to t) in Beagle dog at 1 mg/kg, iv; assay type: ADME, organism-based, Canis lupus familiaris; settings: in vivo
[9] = Plasma protein binding in human assessed as unbound fraction at 10 uM; assay type: ADME, cell-free
[10] = target: T2, Protein cereblon/Signal transducer and activator of transcription 3 (Homo sapiens, UniProt P40763+Q96SW2); assay: PROTAC activity at his-SUMO-tagged STAT3 (127 to 688 residues)/CRBN in human PBMC cells assessed as reduction in STAT3 level incubated for 20 hrs by Western blot analysis; assay type: cell-based
[11] = target: Protein cereblon/Signal transducer and activator of transcription 1-alpha/beta (Homo sapiens, UniProt P42224+Q96SW2); assay: PROTAC activity at STAT1/CRBN in human PBMC cells assessed as reduction in STAT1 level incubated for 20 hrs by Western blot analysis; assay type: cell-based
[12] = target: T3, Protein cereblon/Signal transducer and activator of transcription 2 (Homo sapiens) (UniProt Q96SW2+P52630); assay: PROTAC activity at STAT2/CRBN in human PBMC cells assessed as reduction in STAT2 level upto 40 uM incubated for 20 hrs by Western blot analysis; assay type: cell-based
[13] = target: Protein cereblon/Signal transducer and activator of transcription 5B (Homo sapiens) (UniProt P51692+Q96SW2); assay: PROTAC activity at STAT5B/CRBN in human PBMC cells assessed as reduction in STAT5B level upto 40 uM incubated for 20 hrs by Western blot analysis; assay type: cell-based
hERG (KCNH2) = hERG (KCNH2) (Homo sapiens, UniProt Q12809); assay: Inhibition of hERG at 30 uM relative to control; assay type: toxicity
[14] = Stability in rat Hepatocyte assessed as half life; assay type: ADME, cell-based; settings: hepatocytes
[15] = Stability in mouse plasma assessed as parent compound remaining at […]; assay type: ADME, cell-free; settings: read-out: Stability
[16] = Stability in Non human primate plasma assessed as parent compound remaining at […]; assay type: ADME, cell-free; settings: read-out: Stability
Cytochrome P450 2C19 = Cytochrome P450 2C19 (Homo sapiens, UniProt P33261); assay: Inhibition of CYP2C19 (unknown origin); assay type: ADME
Cytochrome P450 3A4 = Cytochrome P450 3A4 (Homo sapiens, UniProt P08684); assay: Inhibition of CYP3A4 (unknown origin) using testosterone as substrate; assay type: ADME
[17] = target: T3, Protein cereblon/Signal transducer and activator of transcription 2 (Homo sapiens); assay: PROTAC activity at STAT2/CRBN in human SU-DHL-1 cells assessed as reduction in STAT2 level upto 40 uM incubated for 20 hrs by Western blot analysis; assay type: cell-based
[18] = target: T2, Protein cereblon/Signal transducer and activator of transcription 3; assay: PROTAC activity at STAT3/CRBN in human MOLM16 cells assessed as reduction in STAT3 level at 340 nM incubated for 4 hrs by Western blot analysis; assay type: cell-based; design: scale not given: the % may be the effect or the level left
[19] = target: Protein cereblon/Signal transducer and activator of transcription 4 (Homo sapiens, UniProt Q96SW2+Q14765); assay: PROTAC activity at STAT4/CRBN in human MOLM16 cells assessed as reduction in STAT4 level incubated for 4 hrs by Western blot analysis; assay type: cell-based
[20] = target: Signal transducer and activator of transcription 3 (Homo sapiens, UniProt P40763); assay: Binding affinity to STAT3 (unknown origin) assessed as maximum inhibition by FP assay relative to control
[21] = target: T1, Protein cereblon/Signal transducer and activator of transcription 3 (Mus musculus); assay: In-vivo PROTAC activity at STAT3/CRBN in female CB17 SCID mouse assessed as STAT3 depletion spleen at 5 mg/kg, iv measured upto 72 hrs by immunobloting analysis; assay type: functional, organism-based
[22] = target: T1, Protein cereblon/Signal transducer and activator of transcription 3 (Mus musculus); assay: In-vivo PROTAC activity at STAT3/CRBN in female CB17 SCID mouse assessed as STAT3 depletion spleen at 5 mg/kg, iv measured at 1 hr by immunobloting analysis; assay type: functional, organism-based
[23] = target: T1, Protein cereblon/Signal transducer and activator of transcription 3 (Mus musculus); assay: In-vivo PROTAC activity at STAT3/CRBN in female CB17 SCID mouse assessed as reduction in STAT3 level liver at 5 mg/kg, iv measured at 72 hrs by immunobloting analysis; assay type: functional, organism-based; design: scale not given: the % may be the effect or the level left
[24] = target: T1, Protein cereblon/Signal transducer and activator of transcription 3 (Mus musculus); assay: In-vivo PROTAC activity at STAT3/CRBN in female CB17 SCID mouse assessed as reduction in STAT3 level tumor at 5 mg/kg, iv measured at 72 hrs by immunobloting analysis; assay type: functional, organism-based; design: scale not given: the % may be the effect or the level left
[25] = Drug concentration in female CB17 SCID mouse plasma at 5 mg/kg, iv measured at 1 hr by LC-MS/MS analysis; assay type: ADME, organism-based
[26] = Drug concentration in female CB17 SCID mouse plasma at 5 mg/kg, iv measured at 48 hrs by LC-MS/MS analysis; assay type: ADME, organism-based
[27] = Drug concentration in female CB17 SCID mouse plasma at 5 mg/kg, iv measured at 72 hrs by LC-MS/MS analysis; assay type: ADME, organism-based
[28] = Drug concentration in female CB17 SCID mouse liver at 5 mg/kg, iv measured at 3 hrs by LC-MS/MS analysis; assay type: ADME, organism-based; settings: read-out: Ct
[29] = Drug concentration in female CB17 SCID mouse liver at 5 mg/kg, iv measured at 48 hrs by LC-MS/MS analysis; assay type: ADME, organism-based; settings: read-out: Ct
[30] = Drug concentration in female CB17 SCID mouse spleen at 5 mg/kg, iv measured at 1 hr by LC-MS/MS analysis; assay type: ADME, organism-based; settings: read-out: Ct
[31] = Drug concentration in female CB17 SCID mouse spleen at 5 mg/kg, iv measured at 6 hrs by LC-MS/MS analysis; assay type: ADME, organism-based; settings: read-out: Ct
[32] = Drug concentration in female CB17 SCID mouse tumor at 5 mg/kg, iv measured at 48 hrs by LC-MS/MS analysis; assay type: ADME, organism-based, Neoplasm; settings: read-out: Ct
[33] = Toxicity in iv dosed mouse assessed as weight gain; assay type: organism-based; settings: in vivo, dose 5-20 mg/kg
[34] = Antitumor activity against human MOLM16 cells xenografted in mouse assessed as tumor regression at 25 mg/kg, iv administered twice daily; assay type: functional, MOLM-16

Compound: COC(=O)N1CC[C@H]2CC[C@@H](C(=O)N[C@@H](CCC(N)=O)C(=O)N[C@@H](Cc3ccc(F)c(F)c3)C(=O)N3CCC(CCC#Cc4cccc5c4CN(C4CCC(=O)NC4=O)C5=O)CC3)N2C(=O)[C@@H](NC(=O)c2cc3cc(C(F)(F)P(=O)(O)O)ccc3s2)C1 (some centres undefined)
- Activity [1]: > 90%
- Activity [2]: > 90%
- IC50 [3]: 38 nM
- IC50 (SU-DHL-1): 430 nM
- IC50 [4]: 390 nM
- AUC(0-t) [5]: 859 µg·h/mL
- clearance [6]: 3.06 mL/h/kg
- QH [7]: 2.6%
- AUC(0-t) [8]: 10.7 µg·h/mL
- Fu [9]: 0.5%
- DC50 [10]: 0.1 nM
- Activity ([10]; dose 0.1-4000 nM): Dose-dependent-effect
- DC50 [11]: 1600 nM
- Activity [12]: inactive
- Activity [13]: inactive
- inhibition at 30 µM (hERG (KCNH2)): 1.1%
- t1/2 [14]: > 2 h
- remaining at 2 h [15]: 101%
- remaining at 2 h [16]: 101%
- IC50 (Cytochrome P450 2C19): > 10000 nM
- IC50 (Cytochrome P450 3A4): > 10000 nM
- Activity [17]: inactive
- Activity [18]: 100%
- Activity [19]: inactive
- Imax [20]: 100%
- Activity [21]: Active
- Activity [22]: > 70%
- Activity [23]: > 90%
- Activity [24]: > 90%
- concentration at 1 h [25]: 47300 ng/mL
- concentration at 48 h [26]: 12400 ng/mL
- concentration at 72 h [27]: 8430 ng/mL
- concentration at 3 h [28]: 3850 ng/g
- concentration at 48 h [29]: 1130 ng/g
- concentration at 1 h [30]: 2870 ng/g
- concentration at 6 h [31]: 1950 ng/g
- concentration at 48 h [32]: 1110 ng/g
- Activity [33]: Non-toxic
- Activity [34]: 100%
